Test results published in patent US9493446B2, “Orexin receptor antagonists which are [ortho bi-(hetero-)aryl]-[2-(meta bi-(hetero-)aryl)-pyrrolidin-1-yl]-methanone derivatives” (Actelion Pharmaceuticals Ltd, priority 2012, dated 2016).
Read-outs that look alike come from different tables or passages of the source.

Columns and labels:
[1] = target: orexin-1 (Homo sapiens (Human), UniProt O43613); experiment: Intracellular calcium measurement (FLIPR), CHO cells expressing human orexin-1 receptor, 3 nM orexin-A; assay type: cell-based; conditions: read-out: IC50 OX1
How it was run: (§1)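 HBSS buffer with 0.1% BSA, NaHCO3 and 20 mM HEPES carries both compounds and agonist. Dye: fluo-4 AM (3 μM) with 5 mM probenecid. Compound exposure 120 min; peak signal scored against uninhibited orexin-A response.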

[2] = target: human orexin-2 receptor (Homo sapiens (Human), UniProt O43614); experiment: Intracellular calcium measurement (FLIPR), CHO cells expressing human orexin-2 receptor, 3 nM orexin-A; assay type: cell-based; conditions: read-out: IC50 OX2
How it was run: as §1

[3] = CHO cells expressing human orexin-1 receptor, FLIPR, 3 nM orexin-A, geometric mean if determined several times
[4] = CHO cells expressing human orexin-2 receptor, FLIPR, 3 nM orexin-A, geometric mean if determined several times

Sequence of orexin-1 (O43613 whole entry): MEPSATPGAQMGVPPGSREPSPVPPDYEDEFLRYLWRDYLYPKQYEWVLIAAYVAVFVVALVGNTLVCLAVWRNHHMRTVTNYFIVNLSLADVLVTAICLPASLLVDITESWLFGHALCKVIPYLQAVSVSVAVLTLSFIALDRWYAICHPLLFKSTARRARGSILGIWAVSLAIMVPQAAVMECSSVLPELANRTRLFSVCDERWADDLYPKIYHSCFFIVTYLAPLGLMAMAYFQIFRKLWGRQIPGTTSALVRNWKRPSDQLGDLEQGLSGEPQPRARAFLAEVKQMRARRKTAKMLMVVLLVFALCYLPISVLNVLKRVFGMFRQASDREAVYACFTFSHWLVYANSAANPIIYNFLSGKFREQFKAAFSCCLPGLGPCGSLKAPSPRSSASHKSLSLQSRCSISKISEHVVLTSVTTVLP
Sequence of human orexin-2 receptor (O43614 whole entry): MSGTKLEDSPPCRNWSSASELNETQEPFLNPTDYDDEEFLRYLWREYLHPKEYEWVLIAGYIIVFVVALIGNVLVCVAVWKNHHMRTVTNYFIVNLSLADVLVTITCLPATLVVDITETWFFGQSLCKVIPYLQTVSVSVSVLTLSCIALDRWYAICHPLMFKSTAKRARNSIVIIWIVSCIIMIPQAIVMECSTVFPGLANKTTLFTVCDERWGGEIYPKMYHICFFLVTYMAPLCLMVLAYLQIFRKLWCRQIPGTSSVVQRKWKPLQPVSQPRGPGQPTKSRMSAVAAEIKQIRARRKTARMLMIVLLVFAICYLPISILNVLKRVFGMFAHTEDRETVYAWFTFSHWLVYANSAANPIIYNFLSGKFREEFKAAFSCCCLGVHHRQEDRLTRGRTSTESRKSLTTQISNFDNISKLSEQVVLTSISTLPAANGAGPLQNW

Row | Compound | IC50 [1, 3] | IC50 [2, 4] | IC50 [2] | IC50 [1]
1 | COc1c(F)cccc1-c1nc([C@@H]2CCCN2C(=O)c2cc(Cl)ccc2-n2nccn2)no1 [compound 343] | 0.046 µM | 0.003 µM |  | 
2 | CCOc1ncccc1-c1noc([C@@H]2CCCN2C(=O)c2ccc(C)cc2-n2nccn2)n1 [compound 211, {(S)-2-[3-(2-Ethoxy-pyridin-3-yl)-[1,2,4]oxadiazol-5-yl]-pyrrolidin-1-yl}-(4-methyl-2-[1,2,3]triazol-2-yl-phenyl)-methanone] | 0.081 µM | 0.037 µM |  | 
3 | Cc1c(Cl)cccc1-c1noc([C@@H]2CCCN2C(=O)c2ccccc2-n2nccn2)n1 [compound 93] | 0.399 µM | 0.028 µM |  | 
4 | Cc1cc(C(=O)N2CCC[C@H]2c2nc(-c3ccccc3C(F)(F)F)no2)c(-n2nccn2)cc1C [compound 181, (4,5-Dimethyl-2-[1,2,3]triazol-2-yl-phenyl)-{(S)-2-[3-(2-trifluoromethyl-phenyl)-[1,2,4]oxadiazol-5-yl]-pyrrolidin-1-yl}-methanone] | 0.086 µM | 0.037 µM |  | 
5 | Cc1ccc(C(=O)N2CCC[C@H]2c2nc(-c3ccccc3Cl)no2)c(-n2nccn2)c1 [compound 237] | 0.844 µM | 0.186 µM |  | 
6 | COc1cc(C(=O)N2CCC[C@H]2c2nc(-c3ccccc3OC(F)(F)F)no2)c(-n2nccn2)cc1OC [compound 177, (4,5-Dimethoxy-2-[1,2,3]triazol-2-yl-phenyl)-{(S)-2-[3-(2-trifluoromethoxy-phenyl)-[1,2,4]oxadiazol-5-yl]-pyrrolidin-1-yl}-methanone] | 0.126 µM | 0.14 µM |  | 
7 | COc1c(F)cccc1-c1noc([C@@H]2CCCN2C(=O)c2cc(C)c(C)cc2-n2nccn2)n1 [compound 196, (4,5-Dimethyl-2-[1,2,3]triazol-2-yl-phenyl)-{(S)-2-[3-(3-fluoro-2-methoxy-phenyl)-[1,2,4]oxadiazol-5-yl]-pyrrolidin-1-yl}-methanone] | 0.01 µM | 0.002 µM |  | 
8 | Cc1ccc(-n2nccn2)c(C(=O)N2CCC[C@H]2c2cc(-c3cccc(Cl)c3C)n[nH]2)c1 [compound 534] | 0.41 µM | 0.053 µM |  | 
9 | CCOc1c(F)cccc1-c1noc([C@@H]2CCCN2C(=O)c2cc(Cl)c(C)cc2-n2nccn2)n1 [compound 300] | 0.014 µM | 0.01 µM |  | 
10 | Cc1cc(C(=O)N2CCC[C@H]2c2nc(-c3ccccc3OC(F)F)no2)c(-n2nccn2)cc1C [compound 188, {(S)-2-[3-(2-Difluoromethoxy-phenyl)-[1,2,4]oxadiazol-5-yl]-pyrrolidin-1-yl}-(4,5-dimethyl-2-[1,2,3]triazol-2-yl-phenyl)-methanone] | 0.02 µM | 0.003 µM |  | 
11 | Thiophen-2-yl-[(S)-2-(3-o-tolyl-[1,2,4]oxadiazol-5-yl)-pyrrolidin-1-yl]-methanone [Reference compound 3, reference compound] | 0.182 µM |  | 0.034 µM | 
12 | O=C(c1cc(Cl)ccc1-n1nccn1)N1CCC[C@H]1c1nc(-c2ccccc2C(F)(F)F)no1 [compound 179] |  | 0.189 µM |  | 0.371 µM
13 | Cc1c(Cl)cccc1-c1noc([C@@H]2CCCN2C(=O)c2cc(F)ccc2-c2ccn[nH]2)n1 [compound 116] | 0.457 µM | 0.034 µM |  | 
14 | Cc1ccc(-n2nccn2)c(C(=O)N2CCC[C@H]2c2nc(-c3ccccc3C)no2)c1 [compound 16, (5-Methyl-2-[1,2,3]triazol-2-yl-phenyl)-[(S)-2-(3-o-tolyl-[1,2,4]oxadiazol-5-yl)-pyrrolidin-1-yl]-methanone] | 0.128 µM | 0.016 µM |  | 
15 | Cc1ccc(-n2nccn2)c(C(=O)N2CCC[C@H]2c2nc(-c3c[nH]c4cccc(C)c34)no2)c1 [compound 79, {(S)-2-[3-(4-Methyl-1H-indol-3-yl)-[1,2,4]oxadiazol-5-yl]-pyrrolidin-1-yl}-(5-methyl-2-[1,2,3]triazol-2-yl-phenyl)-methanone] | 2.75 µM | 1.07 µM |  | 
16 | Cc1c(F)cccc1-c1nc([C@@H]2CCCN2C(=O)c2ccc(Cl)cc2-n2nccn2)no1 [compound 379] | 0.052 µM | 0.005 µM |  | 
17 | Cc1c(Cl)cccc1-c1noc([C@@H]2CCCN2C(=O)c2ccccc2-c2ccccc2)n1 [compound 268] | 0.233 µM | 0.031 µM |  | 
18 | COc1ccccc1-c1noc([C@@H]2CCCN2C(=O)c2cc(Cl)ccc2-n2nccn2)n1 [compound 228] |  | 0.134 µM |  | 0.272 µM
19 | Cc1ccc(C(=O)N2CCC[C@@]2(C)c2nnc(-c3cccc(Cl)c3C)[nH]2)c(-c2ccccc2)c1 [compound 557] | 0.292 µM | 0.224 µM |  | 
20 | CCOc1ncccc1-c1noc([C@@H]2CCCN2C(=O)c2cc(Cl)c(C)cc2-n2nccn2)n1 [compound 301] | 0.019 µM | 0.006 µM |  | 
21 | Cc1c(Cl)cccc1-c1noc([C@@H]2CCCN2C(=O)c2ccccc2-c2ncco2)n1 [compound 120] | 0.483 µM |  | 0.037 µM | 

Second part, led by results:

Row | IC50 [1, 3] | IC50 [2, 4] | Compound | IC50 [2] | IC50 [1]
22 | 0.016 µM | 0.008 µM | COc1c(F)cccc1-c1nnc([C@@H]2CCCN2C(=O)c2cc(C)c(C)cc2-n2nccn2)[nH]1 [compound 474, (4,5-Dimethyl-2-[1,2,3]triazol-2-yl-phenyl)-{(S)-2-[5-(3-fluoro-2-methoxy-phenyl)-4H-[1,2,4]triazol-3-yl]-pyrrolidin-1-yl}-methanone] |  | 
23 | 0.21 µM | 0.161 µM | N#Cc1ccc(-n2nccn2)c(C(=O)N2CCC[C@H]2c2nc(-c3ccccc3OC(F)(F)F)no2)c1 [compound 275, 4-[1,2,3]Triazol-2-yl-3-{(S)-2-[3-(2-trifluoromethoxy-phenyl)-[1,2,4]oxadiazol-5-yl]-pyrrolidine-1-carbonyl}-benzonitrile] |  | 
24 | 1.05 µM | 2.13 µM | Cc1ccc(-n2nccn2)c(C(=O)N2CCC[C@H]2c2noc(-c3cc(C(F)(F)F)ccn3)n2)c1 [compound 315, (5-Methyl-2-[1,2,3]triazol-2-yl-phenyl)-{(S)-2-[5-(4-trifluoromethyl-pyridin-2-yl)-[1,2,4]oxadiazol-3-yl]-pyrrolidin-1-yl}-methanone] |  | 
25 | 0.389 µM | 0.109 µM | Cc1ccc(-n2nccn2)c(C(=O)N2CCC[C@H]2c2ncc(-c3ccccc3)[nH]2)c1 [compound 527, (5-Methyl-2-[1,2,3]triazol-2-yl-phenyl)-[(S)-2-(5-phenyl-1H-imidazol-2-yl)-pyrrolidin-1-yl]-methanone] |  | 
26 | 0.049 µM | 0.127 µM | COc1ccccc1-c1nnc([C@@H]2CCCN2C(=O)c2ccc(C)cc2-n2nccn2)[nH]1 [compound 471, {(S)-2-[5-(2-Methoxy-phenyl)-4H-[1,2,4]triazol-3-yl]-pyrrolidin-1-yl}-(4-methyl-2-[1,2,3]triazol-2-yl-phenyl)-methanone] |  | 
27 | 0.644 µM | 0.017 µM | Cc1c(F)cccc1-c1nc([C@@H]2CCCN2C(=O)c2ccccc2-n2nccn2)no1 [compound 333, {(S)-2-[5-(3-Fluoro-2-methyl-phenyl)-[1,2,4]oxadiazol-3-yl]-pyrrolidin-1-yl}-(2-[1,2,3]triazol-2-yl-phenyl)-methanone] |  | 
28 | 0.377 µM | 0.029 µM | COc1cc(C(=O)N2CCC[C@H]2c2noc(-c3cccc(F)c3C)n2)c(-n2nccn2)cc1F [compound 372, (4-Fluoro-5-methoxy-2-[1,2,3]triazol-2-yl-phenyl)-{(S)-2-[5-(3-fluoro-2-methyl-phenyl)-[1,2,4]oxadiazol-3-yl]-pyrrolidin-1-yl}-methanone] |  | 
29 | 0.163 µM | 0.24 µM | COc1ccccc1-c1noc([C@@H]2CCCN2C(=O)c2ccc(C)cc2-n2nccn2)n1 [compound 229, {(S)-2-[3-(2-Methoxy-phenyl)-[1,2,4]oxadiazol-5-yl]-pyrrolidin-1-yl}-(4-methyl-2-[1,2,3]triazol-2-yl-phenyl)-methanone] |  | 
30 | 0.057 µM | 0.007 µM | COc1cccc(-c2nc([C@@H]3CCCN3C(=O)c3cc(C)c(C)cc3-n3nccn3)no2)c1C [compound 356, (4,5-Dimethyl-2-[1,2,3]triazol-2-yl-phenyl)-{(S)-2-[5-(3-methoxy-2-methyl-phenyl)-[1,2,4]oxadiazol-3-yl]-pyrrolidin-1-yl}-methanone] |  | 
31 | 0.004 µM | 0.001 µM | CCOc1ccccc1-c1noc([C@@H]2CCCN2C(=O)c2cc(C)c(C)cc2-n2nccn2)n1 [compound 257, (4,5-Dimethyl-2-[1,2,3]triazol-2-yl-phenyl)-{(S)-2-[3-(2-ethoxy-phenyl)-[1,2,4]oxadiazol-5-yl]-pyrrolidin-1-yl}-methanone] |  | 
32 | 0.01 µM | 0.004 µM | COc1cc(C)cc(-c2nc([C@@H]3CCCN3C(=O)c3cc(C)c(C)cc3-n3nccn3)no2)c1 [compound 382, (4,5-Dimethyl-2-[1,2,3]triazol-2-yl-phenyl)-{(S)-2-[5-(3-methoxy-5-methyl-phenyl)-[1,2,4]oxadiazol-3-yl]-pyrrolidin-1-yl}-methanone] |  | 
33 | 0.035 µM | 0.031 µM | Cc1ccc(C(=O)N2CCC[C@H]2c2cc(-c3ccccc3OC(F)(F)F)on2)c(-n2nccn2)c1 [compound 435, (4-Methyl-2-[1,2,3]triazol-2-yl-phenyl)-{(S)-2-[5-(2-trifluoromethoxy-phenyl)-isoxazol-3-yl]-pyrrolidin-1-yl}-methanone] |  | 
34 | 0.01 µM | 0.02 µM | Cc1ccc(C(=O)N2CCC[C@@]2(C)c2nnc(-c3ccccc3OC(F)(F)F)[nH]2)c(-n2nccn2)c1 [compound 543, (4-Methyl-2-[1,2,3]triazol-2-yl-phenyl)-{(S)-2-methyl-2-[5-(2-trifluoromethoxy-phenyl)-4H-[1,2,4]triazol-3-yl]-pyrrolidin-1-yl}-methanone] |  | 
35 | 0.212 µM | 0.005 µM | COc1cc(C(=O)N2CCC[C@H]2c2noc(-c3cccc(F)c3OC)n2)c(-n2nccn2)cc1F [compound 373, {(S)-2-[5-(3-Fluoro-2-methoxy-phenyl)-[1,2,4]oxadiazol-3-yl]-pyrrolidin-1-yl}-(4-fluoro-5-methoxy-2-[1,2,3]triazol-2-yl-phenyl)-methanone] |  | 
